Laboratory results as given in patent US20250108068A1, “COMPOSITIONS AND METHODS FOR ALLEVIATING PULMONARY AILMENTS” (Color Ventures LLC, priority 2023, published 2025).

Tests used:
sheep = assay: Tracheal mucus velocity (TMV) in sheep after CFTR inhibition; type: in vivo; settings: nebulization, over a period of 2-3 hours
Protocol: Modeling mucociliary clearance. To model mucociliary clearance, sheep 40-50 kg were intubated and the velocity of mucociliary clearance in the trachea was measured by insufflation of radio-opaque Teflon discs were placed into the sheep trachea so that they become embedded in the mucus in the trachea. The movement of multiple discs over several minutes was determined using fluoroscopy and the tracheal mucus velocity (TMV) is calculated as the average that the discs travel per minute. After establishing a baseline TMV, a potent long-lasting inhibitor of CFTR (INH-172) was delivered by nebulization with TMV measurements performed every hour, and over a period of 2-3 hours the TMV declines by approximately 50% in a manner like CF where the inability to secrete Cl^− and NaHCO3 results in dehydration of the airways and slowing of mucociliary clearance.
Once the stable inhibition of TMV has been established, typically at hour 4, the test compound was delivered by nebulization and TMV measured for an additional 8 hours. Inhibitors of ENaC like amiloride (as described in Scott, David W., et al., American Journal of Respiratory and Critical Care Medicine 196.6 (2017): 734-744, incorporated herein in its entirety) and P1037/VX371 show rescue of TMV that is of limited duration with an effect that only lasts for 2-3 hours, due to systemic clearance.

[1] = test system: test epithelia (MucilAir™); assay: Cilia beating frequency (CBF) and % active area; type: cell-based, human; settings: positive control, 100 μM in basolateral compartment for 2 hours
Protocol: In the studies described herein, test epithelia (MucilAir™, Epithelix) are reconstituted from cells isolated from a healthy bronchial donor. The formulation is exposed apically to mimic deposition on the nasal mucosa via inhalation. In the studies described herein, positive controls depend on experiment. For example: Isoproterenol 100 μM in culture medium; CBF activator applied in basolateral compartment ([…]) for 2 hours (CBF positive control); Isoproterenol 100 μM in culture medium (MCC positive control); […] Timeline of Epithelia Experiments. At time point 0, epithelia are treated with the test formulation or control using an apical mode of administration. Test formulations or control were exposed at a quantity of 10 μL, at the concentrations in Table 1. […] In some embodiments, CBF is analyzed with Sisson-Ammons Video Analysis (SAVA) software (Sisson et al., Journal of microscopy 211.2 (2003): 103-111) using an inverted phase contrast microscope (Zeiss®, Germany). In some embodiments, CBF is analyzed with Epithelix software (Cilia-X). […] In some embodiments, two videos are recorded per well at 120 frames per second with a total of 512 frames per video. In other embodiments, the CBF is expressed as Hz 256, wherein movies are captured at a high frequency rate of 125 frames per second. […]

Structure (SMILES) | Decline of TMV from baseline (sheep) | Cilia beating frequency [1]
O=C(O)c1ccc(C=C2SC(=S)N(c3cccc(C(F)(F)F)c3)C2=O)cc1 [INH-172] | approximately 50% | 
CC(C)NCC(O)c1ccc(O)c(O)c1 (centres unmarked) [positive control of cilia beating, Isoproterenol] |  | highest cilia beating frequency
